# Source: the CheMixHub viscosity set
# ± gives the uncertainty stated by the source.
# Assay: xn = mol fraction of the nth substance listed
# Conditions: 101.33 kPa
compound,measurement,setting,value
CCCCC + CCO,viscosity,"298.15 K, x2 = 0.0673",0.245 ± 0.003 mPa·s
same,viscosity,"298.15 K, x2 = 0.1351",0.255 ± 0.004 mPa·s
same,viscosity,"298.15 K, x2 = 0.2366",0.288 ± 0.004 mPa·s
same,viscosity,"298.15 K, x2 = 0.3031",0.302 ± 0.004 mPa·s
same,viscosity,"298.15 K, x2 = 0.4034",0.347 ± 0.005 mPa·s
same,viscosity,"298.15 K, x2 = 0.5262",0.425 ± 0.006 mPa·s
same,viscosity,"298.15 K, x2 = 0.6339",0.521 ± 0.007 mPa·s
same,viscosity,"298.15 K, x2 = 0.7315",0.634 ± 0.008 mPa·s
same,viscosity,"298.15 K, x2 = 0.8097",0.742 ± 0.009 mPa·s
same,viscosity,"298.15 K, x2 = 0.9174",0.927 ± 0.012 mPa·s
CCCCCCCO + CCCCCCC,viscosity,"298.15 K, x1 = 0.0508",0.4239 ± 0.0039 mPa·s
same,viscosity,"298.15 K, x1 = 0.1004",0.4638 ± 0.0042 mPa·s
same,viscosity,"298.15 K, x1 = 0.2012",0.5765 ± 0.0051 mPa·s
same,viscosity,"298.15 K, x1 = 0.3013",0.7282 ± 0.0063 mPa·s
same,viscosity,"298.15 K, x1 = 0.4001",0.946 ± 0.0081 mPa·s
same,viscosity,"298.15 K, x1 = 0.4992",1.243 ± 0.011 mPa·s
same,viscosity,"298.15 K, x1 = 0.5981",1.702 ± 0.015 mPa·s
same,viscosity,"298.15 K, x1 = 0.699",2.261 ± 0.02 mPa·s
same,viscosity,"298.15 K, x1 = 0.85",3.616 ± 0.034 mPa·s
same,viscosity,"298.15 K, x1 = 0.9456",4.749 ± 0.046 mPa·s
same,viscosity,"303.15 K, x1 = 0.0373",0.402 ± 0.0047 mPa·s
same,viscosity,"303.15 K, x1 = 0.104",0.469 ± 0.0051 mPa·s
same,viscosity,"303.15 K, x1 = 0.1707",0.543 ± 0.0055 mPa·s
same,viscosity,"303.15 K, x1 = 0.2845",0.703 ± 0.0066 mPa·s
same,viscosity,"303.15 K, x1 = 0.4114",0.901 ± 0.0082 mPa·s
same,viscosity,"303.15 K, x1 = 0.5113",1.21 ± 0.011 mPa·s
same,viscosity,"303.15 K, x1 = 0.62",1.671 ± 0.015 mPa·s
same,viscosity,"303.15 K, x1 = 0.7301",2.236 ± 0.021 mPa·s
same,viscosity,"303.15 K, x1 = 0.8089",2.801 ± 0.026 mPa·s
same,viscosity,"303.15 K, x1 = 0.9029",3.742 ± 0.035 mPa·s
same,viscosity,"303.15 K, x1 = 0.9699",4.553 ± 0.042 mPa·s
same,viscosity,"308.15 K, x1 = 0.0508",0.3784 ± 0.0036 mPa·s
same,viscosity,"308.15 K, x1 = 0.1004",0.4111 ± 0.0038 mPa·s
same,viscosity,"308.15 K, x1 = 0.2012",0.5039 ± 0.0045 mPa·s
same,viscosity,"308.15 K, x1 = 0.3013",0.6241 ± 0.0055 mPa·s
same,viscosity,"308.15 K, x1 = 0.4001",0.7914 ± 0.0068 mPa·s
same,viscosity,"308.15 K, x1 = 0.4992",1.023 ± 0.0086 mPa·s
same,viscosity,"308.15 K, x1 = 0.5981",1.346 ± 0.011 mPa·s
same,viscosity,"308.15 K, x1 = 0.699",1.821 ± 0.015 mPa·s
same,viscosity,"308.15 K, x1 = 0.85",2.806 ± 0.025 mPa·s
same,viscosity,"308.15 K, x1 = 0.9456",3.608 ± 0.033 mPa·s
same,viscosity,"313.15 K, x1 = 0.0373",0.3519 ± 0.0045 mPa·s
same,viscosity,"313.15 K, x1 = 0.104",0.4152 ± 0.0048 mPa·s
same,viscosity,"313.15 K, x1 = 0.1707",0.4918 ± 0.0052 mPa·s
same,viscosity,"313.15 K, x1 = 0.2845",0.6087 ± 0.0059 mPa·s
same,viscosity,"313.15 K, x1 = 0.4114",0.7971 ± 0.0072 mPa·s
same,viscosity,"313.15 K, x1 = 0.5113",0.9558 ± 0.0088 mPa·s
same,viscosity,"313.15 K, x1 = 0.62",1.318 ± 0.013 mPa·s
same,viscosity,"313.15 K, x1 = 0.7301",1.681 ± 0.016 mPa·s
same,viscosity,"313.15 K, x1 = 0.8089",2.082 ± 0.021 mPa·s
same,viscosity,"313.15 K, x1 = 0.9029",2.728 ± 0.028 mPa·s
same,viscosity,"313.15 K, x1 = 0.9699",3.322 ± 0.035 mPa·s
CCCCCCCO + CCOC(C)=O,viscosity,"298.15 K, x2 = 0.1277",3.587 ± 0.16 mPa·s
same,viscosity,"298.15 K, x2 = 0.2478",2.423 ± 0.11 mPa·s
same,viscosity,"298.15 K, x2 = 0.3609",1.721 ± 0.08 mPa·s
same,viscosity,"298.15 K, x2 = 0.4677",1.284 ± 0.062 mPa·s
same,viscosity,"298.15 K, x2 = 0.5686",1 ± 0.049 mPa·s
same,viscosity,"298.15 K, x2 = 0.6673",0.823 ± 0.042 mPa·s
same,viscosity,"298.15 K, x2 = 0.7546",0.663 ± 0.035 mPa·s
same,viscosity,"298.15 K, x2 = 0.8406",0.569 ± 0.031 mPa·s
same,viscosity,"303.15 K, x2 = 0.1277",3.13 ± 0.14 mPa·s
same,viscosity,"303.15 K, x2 = 0.2478",2.144 ± 0.098 mPa·s
same,viscosity,"303.15 K, x2 = 0.3609",1.543 ± 0.073 mPa·s
same,viscosity,"303.15 K, x2 = 0.4677",1.184 ± 0.057 mPa·s
same,viscosity,"303.15 K, x2 = 0.5686",0.914 ± 0.046 mPa·s
same,viscosity,"303.15 K, x2 = 0.6673",0.752 ± 0.039 mPa·s
same,viscosity,"303.15 K, x2 = 0.7546",0.627 ± 0.033 mPa·s
same,viscosity,"303.15 K, x2 = 0.8406",0.529 ± 0.029 mPa·s
same,viscosity,"308.15 K, x2 = 0.1277",2.724 ± 0.12 mPa·s
same,viscosity,"308.15 K, x2 = 0.2478",1.904 ± 0.088 mPa·s
same,viscosity,"308.15 K, x2 = 0.3609",1.41 ± 0.067 mPa·s
same,viscosity,"308.15 K, x2 = 0.4677",1.065 ± 0.052 mPa·s
same,viscosity,"308.15 K, x2 = 0.5686",0.839 ± 0.042 mPa·s
same,viscosity,"308.15 K, x2 = 0.6673",0.696 ± 0.036 mPa·s
same,viscosity,"308.15 K, x2 = 0.7546",0.576 ± 0.031 mPa·s
same,viscosity,"308.15 K, x2 = 0.8406",0.496 ± 0.028 mPa·s
CCN(CC)S(C)(=O)=O + CCCO,viscosity,"303.15 K, x1 = 0.0661",16100 ± 1700 mPa·s
same,viscosity,"303.15 K, x1 = 0.1423",15830 ± 1700 mPa·s
same,viscosity,"303.15 K, x1 = 0.2148",16120 ± 1700 mPa·s
same,viscosity,"303.15 K, x1 = 0.3057",16930 ± 1800 mPa·s
same,viscosity,"303.15 K, x1 = 0.3821",17930 ± 1900 mPa·s
same,viscosity,"303.15 K, x1 = 0.4421",18840 ± 2000 mPa·s
same,viscosity,"303.15 K, x1 = 0.5219",20390 ± 2200 mPa·s
same,viscosity,"303.15 K, x1 = 0.5944",22040 ± 2500 mPa·s
same,viscosity,"303.15 K, x1 = 0.685",24610 ± 2800 mPa·s
same,viscosity,"303.15 K, x1 = 0.7587",27160 ± 3200 mPa·s
same,viscosity,"303.15 K, x1 = 0.8085",29250 ± 3500 mPa·s
same,viscosity,"303.15 K, x1 = 0.8907",33340 ± 4000 mPa·s
